How the values were obtained:
PC12-HS cells [1] = experiment: Evaluation B: neurite-outgrowth action in presence of NGF; type: cell-based, rat; details: for Evaluation B: Neurite-outgrowth action: 50 μl of 400 ng/ml test sample solution per well + NGF final 5 ng/ml; for Evaluation B: Neurite-outgrowth action / Percentage (%) of cells with neurite outgrowth: 3 days; for Percentage (%) of cells with neurite outgrowth: 50 μl/well of 2 μg/ml test solution + NGF final 5 ng/ml
PC12-HS cells [2] = experiment: Evaluation A: neurocyte (cell)-growth-promoting action, ALAMAR BLUE; type: cell-based, rat
Procedure: Then, the effects of test samples were judged as follows:
The relative value of 140 to 199: Equivalent effect to that of NK-4, symbol (∘); The relative value of 200 or higher: Stronger effect than that of NK-4, symbol ([…]). • The results are in Table 6.
The relative fluorescent intensity of each well was determined by using the fluorescent intensity of each well with cells, which had been cultured by admixing with D-MEM medium containing 10% by volume of FBS without any of the compounds, and the intensity of the resulting culture was regarded as 100%. The results are expressed as cell survival percentages (%) in Table 9. […]
The test was conducted twice for each test sample in a triplicate manner and the data were averaged.
Seven compounds as in Table 17, NK-234, NK-26, NK-9815, NK-9694, NK-28 and NK-147 as well as NK-4, were each dissolved in DMSO to give a concentration of 5 mg/ml. […] The test was conducted twice for each test sample in a triplicate manner and the data were averaged.

[3] = 100 μl/well of 100 ng/ml test solution, 3 days, control = 100
[4] = compound concentration 80 ng/ml
[5] = compound concentration 400 ng/ml
[6] = compound concentration 2000 ng/ml
[7] = compound concentration 10000 ng/ml
[8] = compound concentration 25 ng/ml
[9] = compound concentration 50 ng/ml
[10] = compound concentration 100 ng/ml
[11] = compound concentration 200 ng/ml

Cc1ccc2c(c1)S/C(=C\c1sc3cc(C)ccc3[n+]1C)N2C.[I-] [NK-594]
Evaluation B: Neurite-outgrowth action (PC12-HS cells [1]): ∘ (The test sample with a neurite outgrowth rate of 30% or higher was judged to be equivalent or more (∘) compared with NK-4)

CCN1/C(=C/C2=CC(=C/C=C/C3=CC(=C/c4sc5ccccc5[n+]4CC)/CC(C)(C)C3)/CC(C)(C)C2)Sc2ccccc21.[O-][Cl+3]([O-])([O-])[O-] [NK-2545]
Evaluation B: Neurite-outgrowth action (PC12-HS cells [1]): ∘ (The test sample with a neurite outgrowth rate of 30% or higher was judged to be equivalent or more (∘) compared with NK-4)

CCCCN1C(C)=CS\C1=C/C=C(\C=C\c1scc(C)[n+]1CCCC)c1scc(C)[n+]1CCCC.[Cl-].[Cl-] [NK-56]
Percentage (%) of cells with neurite outgrowth (PC12-HS cells [1]): 28%

CCN1/C(=C/c2oc3ccccc3[n+]2CC)Oc2ccccc21.[I-] [NK-863]
Evaluation B: Neurite-outgrowth action (PC12-HS cells [1]): ∘ (The test sample with a neurite outgrowth rate of 30% or higher was judged to be equivalent or more (∘) compared with NK-4)

CC[n+]1ccc(/C=C/C=C/c2ccc(N(C)C)cc2)c2ccccc21.[I-] [NK-526]
Evaluation B: Neurite-outgrowth action (PC12-HS cells [1]): ∘ (The test sample with a neurite outgrowth rate of 30% or higher was judged to be equivalent or more (∘) compared with NK-4)

CC1=CS\C(=C/C=C(\C=C\c2scc(C)[n+]2C)c2scc(C)[n+]2C)N1C.[I-].[I-] [NK-2]
Percentage (%) of cells with neurite outgrowth (PC12-HS cells [1]): 4% | Action of enhancing cell growth (%) (PC12-HS cells [2]; [3]): 126%

CCN1/C(=C/c2cc[n+](CC)c3ccccc23)Sc2ccccc21.[I-] [NK-750]
Evaluation B: Neurite-outgrowth action (PC12-HS cells [1]): ∘ (The test sample with a neurite outgrowth rate of 30% or higher was judged to be equivalent or more (∘) compared with NK-4)

CCCCCCCCCCN1C(C)=CS\C1=C/C=C(\C=C\c1scc(C)[n+]1CCCCCCCCCC)c1scc(C)[n+]1CCCCCCCCCC.[I-].[I-] [NK-2844]
Percentage (%) of cells with neurite outgrowth (PC12-HS cells [1]): 54% | Action of enhancing cell growth (%) (PC12-HS cells [2]; [3]): 399%

CCCCCCCCCCCN1C(C)=CS\C1=C/C=C(/C=C/c1scc(C)[n+]1CCCCCCCCCCC)c1scc(C)[n+]1CCCCCCCCCCC.[I-].[I-] [NK-9640]
Percentage (%) of cells with neurite outgrowth (PC12-HS cells [1]): 13% | Action of enhancing cell growth (%) (PC12-HS cells [2]; [3]): 191%

CCCCCCC[n+]1c(C)csc1/C=C/c1ccc(N(C)C)cc1.[Cl-] [NK-279]
Evaluation B: Neurite-outgrowth action (PC12-HS cells [1]): ∘ (The test sample with a neurite outgrowth rate of 30% or higher was judged to be equivalent or more (∘) compared with NK-4)

CN1/C(=C/C=C/C=C/C=C/C2=[N+](C)c3ccccc3C2(C)C)C(C)(C)c2ccccc21.[I-] [NK-125]
Evaluation B: Neurite-outgrowth action (PC12-HS cells [1]): ∘ (The test sample with a neurite outgrowth rate of 30% or higher was judged to be equivalent or more (∘) compared with NK-4)

CCN1/C(=C/c2ccc3ccccc3[n+]2CC)C=Cc2ccccc21.[Br-] [NK-1046]
Evaluation B: Neurite-outgrowth action (PC12-HS cells [1]): ∘ (The test sample with a neurite outgrowth rate of 30% or higher was judged to be equivalent or more (∘) compared with NK-4)

CN1/C(=C/C=C/c2oc3ccccc3[n+]2C)Oc2ccccc21.[I-] [NK-86]
Evaluation B: Neurite-outgrowth action (PC12-HS cells [1]): ∘ (The test sample with a neurite outgrowth rate of 30% or higher was judged to be equivalent or more (∘) compared with NK-4)

CC(C)CC[n+]1ccc(/C=C/c2ccc(N(C)C)cc2)c2ccccc21.[I-] [NK-282]
Evaluation B: Neurite-outgrowth action (PC12-HS cells [1]): ∘ (The test sample with a neurite outgrowth rate of 30% or higher was judged to be equivalent or more (∘) compared with NK-4)

CCN1/C(=C/C=C/c2oc3ccccc3[n+]2CC)Oc2ccccc21.[I-] [NK-85]
Evaluation B: Neurite-outgrowth action (PC12-HS cells [1]): ∘ (The test sample with a neurite outgrowth rate of 30% or higher was judged to be equivalent or more (∘) compared with NK-4)

CCCCCCCCCCCCN1C(C)=CS\C1=C/C=C(/C=C/c1scc(C)[n+]1CCCCCCCCCCCC)c1scc(C)[n+]1CCCCCCCCCCCC.[I-].[I-] [NK-32]
Percentage (%) of cells with neurite outgrowth (PC12-HS cells [1]): 16% | Action of enhancing cell growth (%) (PC12-HS cells [2]; [3]): 199%

CCCCCN1C(C)=CS\C1=C/C=C(\C=C\c1scc(C)[n+]1CCCCC)c1scc(C)[n+]1CCCCC.[I-].[I-] [NK-2850]
Percentage (%) of cells with neurite outgrowth (PC12-HS cells [1]): 56% | Action of enhancing cell growth (%) (PC12-HS cells [2]; [3]): 553%

CCN1/C(=C/C=C/c2sc3ccc4ccccc4c3[n+]2CC)Sc2ccc3ccccc3c21.[I-] [NK-382]
Evaluation B: Neurite-outgrowth action (PC12-HS cells [1]): ∘ (The test sample with a neurite outgrowth rate of 30% or higher was judged to be equivalent or more (∘) compared with NK-4)

CN1/C(=C/c2oc3ccccc3[n+]2C)Oc2ccccc21.[I-] [NK-87]
Evaluation B: Neurite-outgrowth action (PC12-HS cells [1]): ∘ (The test sample with a neurite outgrowth rate of 30% or higher was judged to be equivalent or more (∘) compared with NK-4)

CCN1/C(=C/c2cc[n+](CC)c3ccccc23)C=Cc2ccccc21.[I-] [NK-276]
Evaluation B: Neurite-outgrowth action (PC12-HS cells [1]): ∘ (The test sample with a neurite outgrowth rate of 30% or higher was judged to be equivalent or more (∘) compared with NK-4)

CC[n+]1ccc(/C=C/c2ccc3c(c2)OCO3)c2ccccc21.[I-] [NK-629]
Evaluation B: Neurite-outgrowth action (PC12-HS cells [1]): ∘ (The test sample with a neurite outgrowth rate of 30% or higher was judged to be equivalent or more (∘) compared with NK-4)

CC[n+]1c(/C=C/C=C/c2ccc(N(C)C)cc2)sc2ccccc21.[I-] [NK-375]
Evaluation B: Neurite-outgrowth action (PC12-HS cells [1]): ∘ (The test sample with a neurite outgrowth rate of 30% or higher was judged to be equivalent or more (∘) compared with NK-4)

CCCCCCCN1C(C)=CS/C1=C\c1scc(C)[n+]1CCCCCCC.[I-] [NK-266]
Evaluation B: Neurite-outgrowth action (PC12-HS cells [1]): ∘ (The test sample with a neurite outgrowth rate of 30% or higher was judged to be equivalent or more (∘) compared with NK-4)

CCN1C(C)=CS\C1=C/C=C(\C=C\c1scc(C)[n+]1CC)c1scc(C)[n+]1CC.[I-].[I-] [NK-13]
Percentage (%) of cells with neurite outgrowth (PC12-HS cells [1]): 5% | Action on neurite outgrowth (%) (PC12-HS cells [1]; [4]): 10< % | Action on neurite outgrowth (%) (PC12-HS cells [1]; [5]): 10< % | Action on neurite outgrowth (%) (PC12-HS cells [1]; [6]): 10< % | Action on neurite outgrowth (%) (PC12-HS cells [1]; [7]): 10< % | Action of enhancing cell growth (%) (PC12-HS cells [2]; [3]): 125% | Action of enhancing cell growth (%) (PC12-HS cells [2]; [8]): 126 ± 12% | Action of enhancing cell growth (%) (PC12-HS cells [2]; [9]): 140 ± 7% | Action of enhancing cell growth (%) (PC12-HS cells [2]; [10]): 231 ± 84% | Action of enhancing cell growth (%) (PC12-HS cells [2]; [11]): 209 ± 24%

CN1/C(=C/C2=[N+](C)c3ccccc3C2(C)C)Oc2ccccc21.[I-] [NK-1684]
Evaluation B: Neurite-outgrowth action (PC12-HS cells [1]): ∘ (The test sample with a neurite outgrowth rate of 30% or higher was judged to be equivalent or more (∘) compared with NK-4)

CCCCCCN1C(C)=CS\C1=C/C=C(\C=C\c1scc(C)[n+]1CCCCCC)c1scc(C)[n+]1CCCCCC.[I-].[I-] [NK-392]
Percentage (%) of cells with neurite outgrowth (PC12-HS cells [1]): 44% | Action on neurite outgrowth (%) (PC12-HS cells [1]; [4]): 44 ± 12% | Action on neurite outgrowth (%) (PC12-HS cells [1]; [5]): 48 ± 2% | Action on neurite outgrowth (%) (PC12-HS cells [1]; [6]): 76 ± 8% | Action on neurite outgrowth (%) (PC12-HS cells [1]; [7]): 81 ± 10% | Action of enhancing cell growth (%) (PC12-HS cells [2]; [3]): 560% | Action of enhancing cell growth (%) (PC12-HS cells [2]; [8]): 349 ± 63% | Action of enhancing cell growth (%) (PC12-HS cells [2]; [9]): 601 ± 93% | Action of enhancing cell growth (%) (PC12-HS cells [2]; [10]): 607 ± 71% | Action of enhancing cell growth (%) (PC12-HS cells [2]; [11]): 460 ± 41%

CCN1/C(=C/c2oc3ccccc3[n+]2CC)Sc2ccccc21.[I-] [NK-1049]
Evaluation B: Neurite-outgrowth action (PC12-HS cells [1]): ∘ (The test sample with a neurite outgrowth rate of 30% or higher was judged to be equivalent or more (∘) compared with NK-4)

CCN1/C(=C/c2sc3ccccc3[n+]2CC)Sc2ccccc21.[Br-] [NK-1560]
Evaluation B: Neurite-outgrowth action (PC12-HS cells [1]): ∘ (The test sample with a neurite outgrowth rate of 30% or higher was judged to be equivalent or more (∘) compared with NK-4)

CCCCN1C(C)=CS/C1=C\c1scc(C)[n+]1CCCC.[I-] [NK-399]
Evaluation B: Neurite-outgrowth action (PC12-HS cells [1]): ∘ (The test sample with a neurite outgrowth rate of 30% or higher was judged to be equivalent or more (∘) compared with NK-4)

CC[n+]1c(/C=C/c2ccc(N(C)C)cc2)[se]c2ccccc21.[I-] [NK-1055]
Evaluation B: Neurite-outgrowth action (PC12-HS cells [1]): ∘ (The test sample with a neurite outgrowth rate of 30% or higher was judged to be equivalent or more (∘) compared with NK-4)

CCN1/C(=C/C=C/C=C/c2sc3ccccc3[n+]2CC)Sc2ccccc21.[I-] [NK-136]
Evaluation B: Neurite-outgrowth action (PC12-HS cells [1]): ∘ (The test sample with a neurite outgrowth rate of 30% or higher was judged to be equivalent or more (∘) compared with NK-4)

CCCCCCC[n+]1c(/C=C/c2ccc(N(C)C)cc2)ccc2ccccc21.[I-] [NK-231]
Evaluation B: Neurite-outgrowth action (PC12-HS cells [1]): ∘ (The test sample with a neurite outgrowth rate of 30% or higher was judged to be equivalent or more (∘) compared with NK-4)

CCCC[n+]1c(C=Cc2ccc(N(C)C)cc2)sc2ccccc21.[I-] [NK-490]
Evaluation B: Neurite-outgrowth action (PC12-HS cells [1]): ∘ (The test sample with a neurite outgrowth rate of 30% or higher was judged to be equivalent or more (∘) compared with NK-4)

CCCCCN1/C(=C/C2=[N+](C)c3ccccc3C2(C)C)C(C)(C)c2ccccc21.[O-][Cl+3]([O-])([O-])[O-] [NK-3206]
Evaluation B: Neurite-outgrowth action (PC12-HS cells [1]): ∘ (The test sample with a neurite outgrowth rate of 30% or higher was judged to be equivalent or more (∘) compared with NK-4)

CCN1/C(=C/C=C/c2cc[n+](CC)c3ccccc23)Oc2ccccc21.[I-] [NK-741]
Evaluation B: Neurite-outgrowth action (PC12-HS cells [1]): ∘ (The test sample with a neurite outgrowth rate of 30% or higher was judged to be equivalent or more (∘) compared with NK-4)

CCN1/C(=C/C=C/C=C/c2sc3ccc4ccccc4c3[n+]2CC)Sc2ccc3ccccc3c21.[I-] [NK-2409]
Evaluation B: Neurite-outgrowth action (PC12-HS cells [1]): ∘ (The test sample with a neurite outgrowth rate of 30% or higher was judged to be equivalent or more (∘) compared with NK-4)

CCN1C(C)=CS/C1=C\C=C\c1scc(C)[n+]1CC [NK-67]
Evaluation B: Neurite-outgrowth action (PC12-HS cells [1]): ∘ (The test sample with a neurite outgrowth rate of 30% or higher was judged to be equivalent or more (∘) compared with NK-4)
